Assay results from patent US12629376B2, “Composition for use in the treatment of ApoL1-associated disease” (RAMBAM MED-TECH LTD., priority 2020, dated 2026).

Columns and labels:
[1] = test system: ApoL1-G1-induced T-REx-293 stable cell line; test: ApoL1-G1-induced cell viability assay (CellTiter-Glo); assay type: cell-based, human; settings: for viability of ApoL1-G1 expressing cells: FIG. 1, 16 hours incubation, 0.08-10 μM, 1 ng/ml Doxycycline, luminescence live-cell count; for cell protective effect against ApoL1 toxicity: cell-based high throughput screening of 200,000 compounds, doxycycline-induced ApoL1-G1 T-REx-293 cells; for cell protective effect against ApoL1 toxicity / cell toxicity: 10 μM; for cell toxicity: high throughput screening, T-REx-293 cells
Description: ApoL1-G1-induced T-REx-293 stable cell line was generated by introducing Flag-tagged human G1 ApoL1 variant DNA (with African genomic sequence background) into the pcDNA4/TO plasmid, which yield expression upon Doxycycline addition. Cells were cultured in DMEM (Gibco, 41965-039) supplemented with 10% FBS, 1% penicillin-streptomycin at 37° C.
In order to estimate the effect of compounds 1, 3 and 7 on ApoL1-induced cells a cell viability assay was performed as following: cells were seeded at density 23K cells per well (96-well plate). Prior to seeding, wells were coated with Fibronectin (Biological industries, 03-090-1-05) for 1 hour at 37° C. On the following day, cells were switched to the same growth medium but containing 1 ng/ml Doxycycline (Sigma, D9891) with different concentrations of compounds 1, 3 or 7, for 16 hours. Then, cells were subjected to viability assay according to manufacturer's instructions, using CellTiter-Glo luminescent cell viability assay kit (Promega, G7570). The plate was read using Infinite 200 PRO for luminescence, which indicated live-cell count.
Induction of ApoL1-G1 variant by doxycycline causes toxicity in T-REx-293 cell line. In order to identify potential inhibitors of ApoL1 toxicity, a cell-based high throughput screening of 200,000 chemical compounds was performed. Cells were incubated with a compound solution (at 10 μM concentration).

T-REx-293 cells = test: cell toxicity assay for anti-proliferative effect (Cell-Titer Glo); assay type: cell-based; settings: FIG. 2, 10 μM, 16 hours
Description: T-REx-293 cells were seeded at a density of 25K cells/well on fibronectin in 96-well plates and grown in DMEM with 10% FBS, 1% P/S medium. 24 hours post-seeding medium was changed to a fresh medium comprising the tested compounds (KS-1, KS-2, or KS-8) at a concentration of 5-10 μM. Non-treated cells were used as a negative control. After 16 hours one plate of the cells was taken for cell viability test using Cell-Titer Glo reagent (Promega). Cells on the other plate were imaged using Incucyte ZOOM system.

Structure (SMILES) | viability of ApoL1-G1 expressing cells [1] | cell protective effect against ApoL1 toxicity [1] | cell toxicity [1] | cell count determined via luminescence signal (relative light units, RLU) versus non-treated cells (T-REx-293 cells)
COc1ccccc1C(=O)Nc1cccc(N2CCC(NC(C)c3cnn(-c4ccccc4)c3)CC2)c1 (stereo not drawn) [Compound 7] | concentration dependent viability increase | highest cell protective effect | without exhibiting a significant cell toxicity | –
O=c1c2ccccc2n(Cc2ccc(Cl)cc2)c(=O)n1Cc1ccc(Cl)cc1 [Compound 3] | concentration dependent viability increase | highest cell protective effect | without exhibiting a significant cell toxicity | –
Cc1c(C)n(Cc2ccc(Br)cc2)c(=O)n(Cc2ccc(Br)cc2)c1=O [Compound 1] | concentration dependent viability increase | highest cell protective effect | without exhibiting a significant cell toxicity | –
O=c1c2ccccc2n(Cc2ccc(Cl)cc2)c(=O)n1Cc1cccs1 [KS-2] | – | – | – | lower
O=c1c2ccccc2n(Cc2ccc(Cl)cc2)c(=O)n1C1CC=CC1 [KS-8] | – | – | – | lower
O=c1c2ccccc2n(Cc2ccncc2)c(=O)n1Cc1ccc(Cl)cc1 [KS-1] | – | – | – | lower
